Data as given in PMC5612938, “A multiple biomarker assay for quality assessment of botanical drugs using a versatile microfluidic chip” (Scientific Reports, 2017).

Biological target: T1, ACE (from rabbit lung) (Oryctolagus cuniculus, UniProt P12822)
T1 construct: ACE (from rabbit lung); purchased Sigma-Aldrich; host or cells: rabbit lung
T1 sequence (P12822 34-1310): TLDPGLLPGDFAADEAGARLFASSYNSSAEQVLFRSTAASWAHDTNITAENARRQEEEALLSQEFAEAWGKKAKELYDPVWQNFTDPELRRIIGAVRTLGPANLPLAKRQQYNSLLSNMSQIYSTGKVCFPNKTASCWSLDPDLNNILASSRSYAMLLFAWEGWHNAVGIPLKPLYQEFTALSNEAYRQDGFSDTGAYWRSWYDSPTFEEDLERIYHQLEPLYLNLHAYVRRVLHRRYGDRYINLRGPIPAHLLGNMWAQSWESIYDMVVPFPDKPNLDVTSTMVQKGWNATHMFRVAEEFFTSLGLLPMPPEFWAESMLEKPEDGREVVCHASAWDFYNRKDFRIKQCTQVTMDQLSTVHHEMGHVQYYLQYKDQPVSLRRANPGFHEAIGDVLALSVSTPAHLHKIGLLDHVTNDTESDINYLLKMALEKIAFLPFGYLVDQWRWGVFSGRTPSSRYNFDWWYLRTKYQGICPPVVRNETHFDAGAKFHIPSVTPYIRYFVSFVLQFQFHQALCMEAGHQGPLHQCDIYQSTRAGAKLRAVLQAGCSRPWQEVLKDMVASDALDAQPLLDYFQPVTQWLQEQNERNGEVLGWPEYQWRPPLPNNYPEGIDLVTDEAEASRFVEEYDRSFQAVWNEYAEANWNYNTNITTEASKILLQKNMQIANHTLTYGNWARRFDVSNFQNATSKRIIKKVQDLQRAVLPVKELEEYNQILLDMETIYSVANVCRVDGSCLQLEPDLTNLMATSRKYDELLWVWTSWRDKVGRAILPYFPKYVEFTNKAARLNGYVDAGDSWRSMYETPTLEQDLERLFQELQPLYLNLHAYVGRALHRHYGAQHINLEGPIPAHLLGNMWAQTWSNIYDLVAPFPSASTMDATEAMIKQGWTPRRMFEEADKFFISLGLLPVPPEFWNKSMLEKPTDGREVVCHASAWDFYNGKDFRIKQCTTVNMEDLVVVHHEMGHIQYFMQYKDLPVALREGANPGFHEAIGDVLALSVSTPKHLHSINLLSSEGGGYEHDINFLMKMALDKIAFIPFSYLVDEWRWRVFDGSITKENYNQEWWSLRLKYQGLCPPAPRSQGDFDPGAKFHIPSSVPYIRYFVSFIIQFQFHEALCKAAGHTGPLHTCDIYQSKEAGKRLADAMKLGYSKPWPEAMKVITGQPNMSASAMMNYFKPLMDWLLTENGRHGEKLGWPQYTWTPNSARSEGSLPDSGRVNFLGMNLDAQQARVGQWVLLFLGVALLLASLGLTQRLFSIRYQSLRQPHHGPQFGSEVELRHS
Test: on-chip ACE inhibition assay (FAPGG hydrolysis, absorbance decrease 340 nm)
Format: biochemical
Protocol: To enhance the performance of the on-chip assay, experimental parameters such as concentrations of enzymes and substrates, substrate reaction time, and incubation time of samples and enzymes were stepwise optimized.
The optimized protocol was first applied to assess the quality of 11 batches of QSYQ intermediates (Table 1). Enzyme inhibition (in percentages) was employed as an indicator of drug quality and calculated according to the following equations: thrombin inhibition (%) = [1 − (AQSYQ/Ablank)] × 100; ACE inhibition (%) = [1 − (ΔAQSYQ/ΔAblank)] × 100; where AQSYQ and Ablank were the absorbance of the test sample and the blank sample after the enzymatic reaction (the background value was subtracted), and ΔAQSYQ and ΔAblank were the absorbance decrease between 0 min and 30 min of the samples.
Thrombin (from human plasma), ACE (from rabbit lung), FAPGG and captopril were purchased from Sigma-Aldrich (St. Louis, USA). […] AEBSF-HCl was purchased from Selleckchem (Houston, USA). Trizma base (Tris) was obtained from Sangon Biotech (Shanghai, China) and dimethyl sulfoxide (DMSO) from J&K Scientific (Beijing, China). All other chemicals were purchased from Sinopharm Chemical (Shanghai, China) unless otherwise indicated. 0.2 M Phosphate buffer (PB, pH 6.5), and 50 mM Tris-HCl buffer (200 mM NaCl, pH 8.3) were prepared as assay buffers for thrombin and ACE, respectively.
MBs (10 mg/mL) were diluted 10 times in PB or Tris-HCl buffer, and 10 μL of the diluted MBs (1 mg/mL) were injected into one channel of the chip using a syringe infusion pump (Harvard Apparatus, USA) and retained by an external magnet. Then, 10 μL of thrombin or ACE solution was added and incubated with MBs for two hours at room temperature to form enzyme-MB complexes. The magnet was manually controlled to move MBs back and forth to enhance the ratio of reaction. Subsequently, MBs were washed twice in assay buffer and magnetically transferred to the other channel through the fluidic bridge, whose opening and closing was controlled by a pneumatic valve. Next, 10 μL of sample solutions of tested drug and 10 μL of enzymatic substrate were sequentially infused to the channel by the pump and incubated with the enzyme. When the enzymatic reaction was finished, the MBs were retained in the channel, and air was injected into the channel from the inlet using a syringe to push all the reacted solution to a 384-well plate. […] Moreover, after detection, the reaction channel was washed three times by assay buffer to remove unbound constituents. 20 μL of 80% aqueous methanol was then injected and incubated with MBs for one hour to dissociate the bound constituents. The resulting solutions of replicates were combined, evaporated by a centrifugal evaporator, reconstituted in 80% aqueous methanol, centrifuged at 10,000 rpm for 10 min, and analyzed by LC-MS for chemical identification.

ACE inhibition (in words) (at tested concentrations): showed ACE inhibitions
inhibition rate (for ACE, maximum inhibition rate observed in the assay): 64.2%
Structure (SMILES): O=C(O)C(O)Cc1ccc(O)c(O)c1 (centres unmarked) [Danshensu]
